“Also recorded” adds a separate entry of the source.
Tests used:
[1] = tested on: hair growth; experiment: Stimulation of hair growth in shaved mice by subdermal/intradermal injection; format: in vivo; settings: for significant acceleration of hair growth within, following the injection: Example 12: 500 and 1000 micrograms per mouse; for significant acceleration of hair growth within, following injection: injected once; for hair growth (photograph of injected mice): visual, injection sites versus surrounding shaved areas; for % POS. RESPONSE: hair growth at both injection sites = positive
Excerpt: Increasing doses of glycyl-L-histidyl-L-lysyl-L-valyl-L-phenylalanyl-L-valine:copper(II) in aqueous solution was infiltrated under the skin in two locations. Mice are examined daily for signs of hair growth in the shaved area and at the injection sites. […] Hair growth at both injection sites is considered a positive response.
Mice were shaved and injected in two locations with an aqueous solution of glycyl-L-histidyl-L-lysine octyl ester:metal ion (GHL octyl:metal ion) at a ratio of peptide to metal ion of 2:1. A dose of 500 micrograms was injected per mouse.
Hair growth at both injection sites is considered a positive response.
Mice were shaved and injected in two locations with an aqueous solution of L-lysyl-L-histidyl-glycine octyl ester:copper(II) (LHG Octyl:Cu) and L-lysyl-L-histidyl-glycyl-L-L-valyl-L-phenylalanyl-L-valine:Cu (LGHVFV:Cu) at a ratio of peptide to metal ion of 2:1, and at a dose of 500 and 1000 micrograms per mouse. Hair growth at both injection sites is considered a positive response.
Mice were shaved and injected intradermally in two locations with various doses of glycyl-L-(3-methyl)-histidyl-L-lysyl-glycyl-L-tryptophan:copper(II). […] Hair growth at both injection sites is considered a positive response.
Mice were shaved and injected once with glycyl-L-histidyl-L-lysine n-octyl ester:copper(II) at a dose of 500 micrograms per mouse.
A group of ten mice were shaved and injected once with glycyl-L-histidyl-L-lysine decyl ester:copper(II) at a dose of 500 micrograms per mouse.
A group of 10 mice were shaved and injected once with glycyl-L-histidyl-L-lysine palmityl ester:copper(II) at a dose of 500 micrograms per mose.

[2] = tested on: hair follicles and subcutaneous fat layer; experiment: Histological evaluation of skin biopsies through the area of accelerated hair growth; format: in vivo, mice; settings: for hair follicles in histological sections / subcutaneous fat layer in histological sections: skin biopsy through the site of injection / area of accelerated hair growth
Excerpt: Moreover, the surrounding skin contains telogen state follicles resting in the dermal layer, and a gradation of effect is observed as you move closer to the injection site. […] FIG. 4 is a photograph which illustrates the histological section from a mouse injection with glycyl-L-histidyl-L-lysyl-L-valyl-L-phenylalanyl-L-valine:copper(II). The area of injection is on the right side of the photograph. A decrease in hair follicle density and the subcutaneous fat layer is observed at increasing distance from the injection site.
It is known that the thickness of this fat layer is directly associated with hair growth. This increase in subcutaneous fat is shown by taking a biopsy sample at day 21 through the area and sectioning for histology slides. […] The injected area is on the right with the adjacent uninjected area on the left of the photograph.
A group of ten mice were shaved and injected once with glycyl-L-histidyl-L-lysine decyl ester:copper(II) at a dose of 500 micrograms per mouse. […]

[3] = tested on: hair growth; experiment: Stimulation of hair growth in shaved mice by daily topical application; format: in vivo; settings: treated daily; 1% (w/w) in Nonocynol-9 5% / Unibase Cream 94%; peptide to metal ion 2:1
Excerpt: Hair growth at the treated site is considered a positive response.

[4] = two locations, peptide to metal ion 2:1
[5] = dose 0.5 mg, two locations, peptide to metal ion 2:1
[6] = dose 1.0 mg, two locations, peptide to metal ion 2:1
[7] = Exp. 1, dose 500 mg, intradermally in two locations

L-lysyl-L-histidyl-glycine octyl ester:copper(II) [LHG-Octyl:Cu]
significant acceleration of hair growth within, following the injection [1, 4]: 2-3 weeks
POSITIVE RESPONSE (No. Positive/Total No.) [1, 5]: 8/8
POSITIVE RESPONSE, percent [1, 5]: 100%
POSITIVE RESPONSE (No. Positive/Total No.) [1, 6]: 5/5
POSITIVE RESPONSE, percent [1, 6]: 100%

L-lysyl-L-histidyl-glycyl-L-valyl-L-phenylalanyl-L-valine:copper(II) [LHGVFV:Cu]
significant acceleration of hair growth within, following the injection [1, 4]: 2-3 weeks
POSITIVE RESPONSE (No. Positive/Total No.) [1, 5]: 9/10
POSITIVE RESPONSE, percent [1, 5]: 90%
POSITIVE RESPONSE (No. Positive/Total No.) [1, 6]: 5/5
POSITIVE RESPONSE, percent [1, 6]: 100%

glycyl-L-(3-methyl)-histidyl-L-lysyl-glycyl-L-tryptophan:copper(II)
hair growth noted within, following the injections ([1]; Example 14: various doses, intradermally in two locations): 2-3 weeks
POSITIVE RESPONSE (No. Positive/Total No.) [1, 7]: 5/5
POSITIVE RESPONSE, percent [1, 7]: 100%
POSITIVE RESPONSE, percent ([1]; Exp. 2, dose 250 mg, intradermally in two locations): 100%
POSITIVE RESPONSE (No. Positive/Total No.) ([1]; Exp. 2, intradermally in two locations): 5/5

glycyl-L-histidyl-L-lysine decyl ester:copper(II)
significant acceleration of hair growth within, following injection ([1]; 500 micrograms per mouse): 2-3 weeks
hair growth (photograph of injected mice) [1]: stimulated hair growth
hair shaft units within the subcutaneous fat layer ([2]; biopsy of area of accelerated growth, 500 micrograms per mouse, injected once): marked proliferation of hair shaft units; also recorded: marked proliferation of hair shafts
hair follicles in histological sections [2]: increased hair growth, fat cell layer and increased hair follicle density

glycyl-L-histidyl-L-lysine octyl ester:copper(II) [GHL Octyl:Cu(II)]
POSITIVE RESPONSE (No. Positive/Total No.) ([1]; 500 micrograms per mouse, two locations, peptide to metal ion 2:1, hair growth at both sites = positive): 4/4
significant acceleration of hair growth within, following injection ([1]; 500 micrograms per mouse): 2-3 weeks
increase in the subcutaneous fat layer in the skin near the injection site (measurements) ([2]; biopsy at day 21, 500 micrograms per mouse, injected once, versus adjacent uninjected area): approximately threefold increase
number and size of the fat cells ([2]; biopsy at day 21, injected area versus adjacent uninjected area): obvious increase in both the number and size of the fat cells
subcutaneous fat layer in histological sections ([2]; listed as glycyl-L-histidyl-L-lysine n-octyl ester:copper(II)): significant increase in the thickness of the subcutaneous fat layer

glycyl-L-histidyl-L-lysine palmityl ester:copper(II)
significant acceleration of hair growth within, following injection ([1]; 500 micrograms per mouse): 2-3 weeks
hair follicles in histological sections [2]: large number of developing hair follicles within the subcutaneous fat layer

glycyl-L-histidyl-L-lysyl-L-valyl-L-phenylalanyl-L-valine:copper(II)
mice showing accelerated hair growth in the area of topical application (number) [3]: Four of the five
mice showing accelerated hair growth in the area of topical application (percent) [3]: 80%
diameter of circle of growth ([1]; 0.5 mg injection): approximately 0.5 cm
% POS. RESPONSE ([1]; dose 0.10 mg/inj., injected under the skin in two locations): 86%
% POS. RESPONSE ([1]; dose 0.25 mg/inj., two locations): 89%
% POS. RESPONSE ([1]; dose 0.50 mg/inj., two locations): 89%
% POS. RESPONSE ([1]; dose 1.00 mg/inj., two locations): 95%
active hair growth takes place between ([1]; following injection): 14 to 20 days
indications of hair growth seen within ([1]; following injection): ≤ 10 days
maximum effect seen by ([1]; following injection): ≤ 28 days
stimulated hair growth at and around the injection site by days ([1]; increasing doses, two locations, shaved on day 1): 14 to 21 days
hair growth at 25 days from the date of injection (photograph) ([1]; single injection site, versus control mouse injected with saline): accelerated hair growth
positive response, % of the mice injected ([1]; summary of series of experiments of Table 1, no response with saline): 80-90%
hair growth (photograph of injected mice) [1]: accelerated hair growth at two injection sites
hair follicles in histological sections [2]: anagen state follicles
subcutaneous fat layer in histological sections [2]: thickening of the fat layer

Source: patent publication US5120831A, “Metal-peptide compositions” (ProCyte Corporation, priority 1989, dated 1992)
